Measured values: US20030032809A1, “Optimized procedures for the manufacture of paroxetine salts” (priority 2001, published 2003)

How the values were obtained:
[1] = prior-art statement; cited from earlier work
[2] = Solubility of paroxetine salts in water; format: physicochemical

(−)-trans-4R-(4′-fluorophenyl)-3S-[(3′,4′-methylenedioxyphenyl)oxymethyl]piperidine acetate [paroxetine acetate]
water solubility (in words, background) [1]: excellent water solubility profile | solubility ([2]; purified water, room temperature, purified paroxetine acetate): at least 1000 mg per one ml | solubility in water (in words) ([2]; water): highly soluble in water
